From publication PMC10440361 (Current Research in Pharmacology and Drug Discovery, 2023)
Read-outs that look alike come from different tables or passages of the source.

Legend:
[1] = system: adult male cynomolgus monkeys; type: in vivo; conditions: for average increase in MAP between 30 min and 5 h: vehicle 3.5 mmHg; for maximum MAP values (increase from baseline) / maximum Δ MAP: telemetered cynomolgus monkeys; for maximum MAP values (increase from baseline): IV vehicle 22.2 ± 3.5 mmHg; for time for which increases from baseline in MAP above 20 mmHg were sustained: average; for average increase in MAP between 30 min and 5 h after administration: vehicle SC 0.8 mmHg; for maximum Δ MAP: vehicle SC 25.9 ± 1.6 mmHg
adult male Wistar rats = assay: Skin blood flow; type: in vivo; conditions: anesthetized rats, IV infusion; discussion statement
[2] = system: adult male Sprague Dawley rats; assay: Arterial blood pressure by telemetry after SC administration in rats; type: in vivo; conditions: conscious telemetered Sprague Dawley rats, n=6
human V1a receptors = conditions: read-out: EC50 for human V1a; ref Croston et al., 2023; cited from earlier work
human V2 receptors = conditions: ref Croston et al., 2023, cited from earlier work
rat V2 receptor = conditions: cell-based functional assays; ref Croston et al., 2023; cited from earlier work

With “N-[N-(N-glycylglycyl) glycyl]-8-L-lysinevasopressin [Terlipressin]” the “time past which MAP increases from baseline above 20 mmHg were not sustained” value ([1]; monkeys, IV bolus 0.03 mg/kg, on average) was ≤ 30 min, the “average increase in MAP between 30 min and 5 h” value ([1]; monkeys, IV bolus 0.03 mg/kg) was 6.0 mmHg and the “time past which MAP increases from baseline above 20 mmHg were not sustained” value ([1]; monkeys, IV bolus 0.09 mg/kg, on average) was ≤ 30 min. For the same substance, the “average increase in MAP between 30 min and 5 h” value ([1]; monkeys, IV bolus 0.09 mg/kg) was 5.8 mmHg, the “time past which MAP increases from baseline above 20 mmHg were not sustained” value ([1]; monkeys, IV bolus 0.17 mg/kg, on average) was ≤ 75 min and the “average increase in MAP between 30 min and 5 h” value ([1]; monkeys, IV bolus 0.17 mg/kg) was 14.6 mmHg. The “time past which MAP increases from baseline above 20 mmHg were not sustained” value ([1]; monkeys, IV bolus 0.34 mg/kg, on average) was ≤ 90 min, the “average increase in MAP between 30 min and 5 h” value ([1]; monkeys, IV bolus 0.34 mg/kg) was 14.7 mmHg and the “time after administration by which ΔMAP was negligible” value ([1]; monkeys, IV bolus, all treatment groups 0.03 to 0.34 mg/kg, on average) was ≤ 150 min. For the same substance, the “maximum MAP values (increase from baseline)” value ([1]; IV bolus 0.03 mg/kg) was 29.6 ± 3.6 mmHg, the “maximum MAP values (increase from baseline)” value ([1]; IV bolus 0.09 mg/kg) was 29.9 ± 6.2 mmHg and the “maximum MAP values (increase from baseline)” value ([1]; IV bolus 0.17 mg/kg) was 50.8 ± 5.6 mmHg. For the same substance, the “maximum MAP values (increase from baseline)” value ([1]; IV bolus 0.34 mg/kg) was 41.2 ± 7.5 mmHg.

For “[Phe2,Dab(Lys(Lys(Ac)-[Ala6,Glu9]))8]VT [OCE-205]”, the “approximately maximal decrease in SBF from baseline” value (adult male Wistar rats) was ~40%, the “maximum increase in mean arterial blood pressure vs mean pre-test value” (from here on “maximum increase”) ([2]; SC 0.1 mg/kg, at 1 h) was “+22 mmHg” and the “maximum increase” value ([2]; SC 0.6 mg/kg, at 2 h) was “+22 mmHg”. For the same substance, the “maximum increase” value ([2]; SC 4 mg/kg, at 3 and 4 h) was “+38 mmHg”, the “maximum increase” value ([2]; SC 20 mg/kg, at 4 h) was “+46 mmHg” and the “time for which increases from baseline in MAP above 20 mmHg were sustained” value (“time for which increases from baseline” for short) ([1]; monkeys, SC bolus 0.01 mg/kg) was 150 min. For the same substance, the “average increase in MAP between 30 min and 5 h after administration” value (shortened to “average increase … after administration”) ([1]; monkeys, SC bolus 0.01 mg/kg) was 20.6 mmHg, the “time for which increases from baseline” value ([1]; monkeys, SC bolus 0.05 mg/kg) was 75 min and the “average increase … after administration” value ([1]; monkeys, SC bolus 0.05 mg/kg) was 18.4 mmHg. The “time for which increases from baseline” value ([1]; monkeys, SC bolus 0.5 mg/kg) was 300 min, the “Δ MAP maintained throughout the 8 h of measurement” value ([1]; monkeys, SC bolus 0.5 mg/kg, on average) was “above 14 mmHg” and the “average increase … after administration” value ([1]; monkeys, SC bolus 0.5 mg/kg) was 24.8 mmHg. For the same substance, the “maximum Δ MAP” value ([1]; SC bolus 0.01 mg/kg) was 36.1 ± 2.1 mmHg, the “maximum Δ MAP” value ([1]; SC bolus 0.05 mg/kg) was 34.9 ± 1.1 mmHg and the “maximum Δ MAP” value ([1]; SC bolus 0.5 mg/kg) was 41.6 ± 6.5 mmHg. The EC50 (human V1a receptors) was 0.7 nM, the “activity at human V2 receptors” value (human V2 receptors; at clinically relevant concentrations) was “little to no activity” and the “activity at the human V2 receptor” value (human V2 receptors; cell-based functional assays) was “no activity”. For the same substance, the “activity at the rat V2 receptor” value (rat V2 receptor) was “no activity”.
